Laboratory results from BindingDB's records for PubMed 35176561 (Shenyang Pharmaceutical University, 2022).

Target: Amyloid-beta precursor protein (Homo sapiens, UniProt P05067)
Experiment: Inhibition of amyloid beta 42 (unknown origin) secretion

Amyloid-beta precursor protein, sequence (P05067 whole entry): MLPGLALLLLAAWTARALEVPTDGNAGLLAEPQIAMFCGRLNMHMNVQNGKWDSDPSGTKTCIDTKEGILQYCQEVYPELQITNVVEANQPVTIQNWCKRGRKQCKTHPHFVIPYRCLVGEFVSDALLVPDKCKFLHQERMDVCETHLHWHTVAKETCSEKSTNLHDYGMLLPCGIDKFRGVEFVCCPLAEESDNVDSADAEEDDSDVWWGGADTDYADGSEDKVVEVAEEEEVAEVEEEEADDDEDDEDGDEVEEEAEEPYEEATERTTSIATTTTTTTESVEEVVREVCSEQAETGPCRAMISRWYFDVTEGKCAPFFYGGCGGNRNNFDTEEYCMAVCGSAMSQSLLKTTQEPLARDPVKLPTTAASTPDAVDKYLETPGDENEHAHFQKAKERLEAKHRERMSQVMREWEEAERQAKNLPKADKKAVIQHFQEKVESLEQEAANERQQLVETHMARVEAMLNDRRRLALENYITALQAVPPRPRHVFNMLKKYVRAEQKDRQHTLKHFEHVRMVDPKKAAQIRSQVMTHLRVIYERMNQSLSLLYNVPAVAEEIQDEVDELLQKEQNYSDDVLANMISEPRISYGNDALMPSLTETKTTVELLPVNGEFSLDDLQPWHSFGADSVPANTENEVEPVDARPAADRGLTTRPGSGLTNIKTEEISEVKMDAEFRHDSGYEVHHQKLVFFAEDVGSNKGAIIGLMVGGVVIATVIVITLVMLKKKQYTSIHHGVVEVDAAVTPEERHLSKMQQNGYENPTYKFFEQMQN

Row | SMILES | IC50 [nM]
1 | COc1nc(-c2cc(C)c(N[C@@H](C)c3cc(F)cc(F)c3)nn2)ccc1-n1cnc(C)c1 | 4.1
2 | COc1nc(-c2cc(C)c(N[C@@H](C)c3cc(F)c(F)c(F)c3)nn2)ccc1-n1cnc(C)c1 | 5.3
